{
  "source": "patent EP0385476B2",
  "about": "“Physiologically active polypeptide and DNA” (SHIONOGI & CO., LTD., priority 1989, dated 1999)",
  "origin": "cited, not measured here",
  "system": "chicken rectum",
  "conditions": "relative to ANP",
  "data": [
    {"substance": "porcine brain natriuretic peptide [pBNP]", "values": [
      {"measurement": "rectum relaxation activity, times higher than that of ANP", "value": "3 to 4", "unit": "times"}
    ]}
  ]
}
